The test system of the assay is SARS-CoV-2 B.1 (D614G) wild-type. Type of assay: cell-based.

“And” between values parts separate entries of the source, which are not always exact repeats. Equal values may be shown once.

Data on one molecule can be found in PMC9321742 (Viruses, 2022).

The term IC50 denotes the concentration that inhibits the measured activity by half. For `O=c1nc(NO)ccn1[C@@H]1O[C@H](CO)[C@@H](O)[C@H]1O` [EIDD-1931], the “Increase in antiviral activity by the P-gp inhibitor” value is reported as “negligible”. Besides, the IC50 (read-out: IC50 WT Mean ± SD) was 1.1 µM and 1.5 µM.
